Experimental data: patent publication US20200108112A1, “METHOD FOR PREPARING FENUGREEK EXTRACT AND PHARMACEUTICAL COMPOSITION COMPRISING FENUGREEK EXTRACT” (PRINCE PHARMACEUTICAL CO., LTD., priority 2017, published 2020)

System: HepG2 cells
Experiment: Lipid droplets formation in HepG2 cells, formula of fenugreek extract (oil red-O / MTS index)
Type: cell-based
Conditions: lipid droplets induced group = 100%; treated 16 hours, then lipid droplets induced reagent 16 hours
Method: (1) HepG2 cells were seeded at 2.5×10^4 cells/well and incubated for 24 hours. (2) The incubated cells were divided into the following groups: Control group (CG) was added with 1% DMSO to treat the HepG2 cells for 16 hours, and then treated with cell culture medium for 16 hours. Lipid droplets induced group (LDIG) was added with 1% DMSO to treat the HepG2 cells for 16 hours, and then treated with 500 nM lipid droplets induced reagent for 16 hours. […] In addition, in a preferred embodiment, Vitamin E, SiO2, MAG and Fibersol-2 ® may be additionally added as desired. Each experiment group was respectively added to treat the HepG2 cells for 16 hours, and then treated with lipid droplets induced reagent for 16 hours. [table] (3) The above groups were examined by MTS assay and oil red-O stain, and the oil red OD value/MTS OD value was used as the index of lipid droplets.

For `NCCS(=O)(=O)O` [experiment group 7, taurine], which “percentage of the lipid droplet formation” value is on record?
The value was 72.4%.
